One block for each compound: values may come before it.
Key:
[1] = Quantum yield measurements versus Acridine Yellow in EtOH; assay type: physicochemical; conditions: for φ (%): quantum yield; for φ (quantum yield): excitation 460 nm
Outline: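 Fluorescence quantum yield is relative to Acridine Yellow in EtOH (Φ 0.47), with excitation at 460 nm. Integrated emission at 510–700 nm was corrected for absorbance at the excitation wavelength and for solvent refractive index.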

[2] = test system: mixed primary neural cell populations; experiment: Flow cytometry analysis and FACS sorting of mixed primary neural cells; assay type: cell-based, mouse
Description: Unstained controls are shown in each spectrum from about 0 to about 1 G.
To further analyze this population of compound positive cells, the two populations (Bright and Dim) were sorted out cell re-culture and RNA extraction for gene analysis.

[3] = Absorbance and fluorescence emission spectra (SpectraMax M2); assay type: physicochemical; conditions: for λmax Absorp. (nm) / λmax Emission (nm): MKCA compound library; for λmax Absorp. (nm) / λmax Abs. (nm): absorbance maximum; for λmax Emission (nm) / λmax Em. (nm): fluorescence emission maximum; for λmax Abs. (nm) / λmax Em. (nm): MKAC compound library
Outline: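 Absorbance and emission maxima measured on a SpectraMax M2 spectrophotometer, which also gave quantum yield data; analysis in GraphPrism.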

φ (%) ([1]; MKCA compound library): 7.26%
λmax Absorp. (nm) [3]: 466 nm
λmax Emission (nm) [3]: 575 nm
SMILES: CN(Cc1ccccc1)C1=[N+]2C(=C(c3ccc(NC(=O)CCl)cc3)c3ccc(-n4cc(C5CC5)nn4)n3[B-]2(F)F)C=C1 [MKCA195-4]

φ (%) ([1]; MKCA compound library): 2.66%
λmax Absorp. (nm) [3]: 463 nm
λmax Emission (nm) [3]: 564 nm
SMILES: O=C(CCl)Nc1ccc(C2=C3C=CC(N4CCCC4)=[N+]3[B-](F)(F)n3c2ccc3-n2cc(CC3CCCCC3)nn2)cc1 [MKCA215-8]

φ (%) ([1]; MKCA compound library): 1.94%
λmax Absorp. (nm) [3]: 463 nm
λmax Emission (nm) [3]: 574 nm
SMILES: O=C(CCl)Nc1ccc(C2=C3C=CC(N4CCCC4)=[N+]3[B-](F)(F)n3c2ccc3-n2cc(C3CCCC3)nn2)cc1 [MKCA215-5]

φ (quantum yield) ([1]; BDCCA library, Table 4): 2.6%
λmax Absorp. ([3]; BDCCA library, Table 4): 458 nm
λmax Emission ([3]; BDCCA library, Table 4): 556 nm
SMILES: O=C(CCl)Nc1ccc(C2=C3C=CC(N4CCCCC4)=[N+]3[B-](F)(F)n3c2ccc3-n2cc(-c3cc(C(F)(F)F)cc(C(F)(F)F)c3)nn2)cc1 [BDCCA-30]

φ (%) ([1]; MKCA compound library): 25.80%
λmax Absorp. (nm) [3]: 465 nm
λmax Emission (nm) [3]: 560 nm
SMILES: COc1ccc(OC)c(CNC2=[N+]3C(=C(c4ccc(NC(=O)CCl)cc4)c4ccc(-n5cc(C6CCCC6)nn5)n4[B-]3(F)F)C=C2)c1 [MKCA181-5]

φ (quantum yield) ([1]; BDCCA library, Table 4): 0.1%
λmax Absorp. ([3]; BDCCA library, Table 4): 467 nm
λmax Emission ([3]; BDCCA library, Table 4): 627 nm
SMILES: CN(C)c1ccc(-c2cn(-c3ccc4n3[B-](F)(F)[N+]3=C(N5CCCCC5)C=CC3=C4c3ccc(NC(=O)CCl)cc3)nn2)cc1 [BDCCA-13]

φ (quantum yield) ([1]; BDCCA library, Table 4): 1.3%
λmax Absorp. ([3]; BDCCA library, Table 4): 465 nm
λmax Emission ([3]; BDCCA library, Table 4): 568 nm
SMILES: O=C(CCl)Nc1ccc(C2=C3C=CC(N4CCCCC4)=[N+]3[B-](F)(F)n3c2ccc3-n2cc(-c3ccc(F)cc3F)nn2)cc1 [BDCCA-26]

φ (quantum yield) ([1]; BDCAC library, Table 3): 0.9%
λmax Absorp. ([3]; BDCAC library, Table 3): 463 nm
λmax Emission ([3]; BDCAC library, Table 3): 569 nm
SMILES: CC(=O)Nc1ccc(C2=C3C=CC(N4CCCCC4)=[N+]3[B-](F)(F)n3c2ccc3-n2cc(-c3cccc(F)c3)nn2)cc1 [BDCAC-31]

φ (%) ([1]; MKCA compound library): 2.54%
λmax Absorp. (nm) [3]: 466 nm
λmax Emission (nm) [3]: 585 nm
SMILES: CC1CN(C2=[N+]3C(=C(c4ccc(NC(=O)CCl)cc4)c4ccc(-n5cc(CN(C)Cc6ccccc6)nn5)n4[B-]3(F)F)C=C2)CC(C)O1 (stereo not shown) [MKCA20-18]

φ (%) ([1]; MKCA compound library): 2.33%
λmax Absorp. (nm) [3]: 466 nm
λmax Emission (nm) [3]: 585 nm
SMILES: CN(Cc1ccccc1)Cc1cn(-c2ccc3n2[B-](F)(F)[N+]2=C(N4CCc5ccccc5C4)C=CC2=C3c2ccc(NC(=O)CCl)cc2)nn1 [MKCA66-18]

φ (%) ([1]; MKCA compound library): 4.93%
λmax Absorp. (nm) [3]: 467 nm
λmax Emission (nm) [3]: 580 nm
SMILES: CN(Cc1ccccc1)C1=[N+]2C(=C(c3ccc(NC(=O)CCl)cc3)c3ccc(-n4cc(C5CCCC5)nn4)n3[B-]2(F)F)C=C1 [MKCA195-5]

φ (quantum yield) ([1]; BDCCA library, Table 4): 0.9%
λmax Absorp. ([3]; BDCCA library, Table 4): 468 nm
λmax Emission ([3]; BDCCA library, Table 4): 590 nm
SMILES: O=C(CCl)Nc1ccc(C2=C3C=CC(N4CCCCC4)=[N+]3[B-](F)(F)n3c2ccc3-n2cc(CC3CCCC3)nn2)cc1 [BDCCA-7]

φ (quantum yield) ([1]; BDCCA library, Table 4): 0.9%
λmax Absorp. ([3]; BDCCA library, Table 4): 468 nm
λmax Emission ([3]; BDCCA library, Table 4): 588 nm
SMILES: O=C(CCl)Nc1ccc(C2=C3C=CC(N4CCCCC4)=[N+]3[B-](F)(F)n3c2ccc3-n2cc(C3CCCC3)nn2)cc1 [BDCCA-5]

The remaining lines, values behind:

SMILES: CCCC(C)c1cn(-c2ccc3n2[B-](F)(F)[N+]2=C(NCc4ccccc4C)C=CC2=C3c2ccc(NC(=O)CCl)cc2)nn1 (stereo not shown) [MKCA101-3]
φ (%) ([1]; MKCA compound library): 31.22%
flow cytometry profile of stained mixed neural cell populations [2]: neuronal population segregating from the main population
λmax Absorp. (nm) [3]: 464 nm
λmax Emission (nm) [3]: 563 nm

SMILES: CCCc1cn(-c2ccc3n2[B-](F)(F)[N+]2=C(N4CC(C)OC(C)C4)C=CC2=C3c2ccc(NC(C)=O)cc2)nn1 (stereo not shown) [MKAC20-48]
φ (%) ([1]; MKAC compound library): 2.93%
λmax Abs. (nm) [3]: 467 nm
λmax Em. (nm) [3]: 581 nm

SMILES: CC1CN(C2=[N+]3C(=C(c4ccc(N)cc4)c4ccc(-n5cc(CCc6ccccc6)nn5)n4[B-]3(F)F)C=C2)CC(C)O1 (stereo not shown) [MK20-19]
φ (quantum yield) ([1]; MK library, Table 5): 0.34%
λmax Absorp. ([3]; MK library, Table 5): 477 nm
λmax Emission ([3]; MK library, Table 5): 578 nm

SMILES: CCCc1cn(-c2ccc3n2[B-](F)(F)[N+]2=C(NCc4ccccc4C)C=CC2=C3c2ccc(N)cc2)nn1 [MK101-48]
φ (quantum yield) ([1]; MK library, Table 5): 2.92%
λmax Absorp. ([3]; MK library, Table 5): 473 nm
λmax Emission ([3]; MK library, Table 5): 562 nm

SMILES: CC1CN(C2=[N+]3C(=C(c4ccc(N)cc4)c4ccc(-n5cc(C6CC6)nn5)n4[B-]3(F)F)C=C2)CC(C)O1 (stereo not shown) [MK20-4]
φ (quantum yield) ([1]; MK library, Table 5): 0.50%
λmax Absorp. ([3]; MK library, Table 5): 476 nm
λmax Emission ([3]; MK library, Table 5): 564 nm

SMILES: CC(=O)Nc1ccc(C2=C3C=CC(N4CC(C)OC(C)C4)=[N+]3[B-](F)(F)n3c2ccc3-n2cc(CO)nn2)cc1 (stereo not shown) [MKAC20-70]
φ (%) ([1]; MKAC compound library): 1.33%
λmax Abs. (nm) [3]: 467 nm
λmax Em. (nm) [3]: 586 nm

SMILES: Nc1ccc(C2=C3C=CC(N4CCCC4)=[N+]3[B-](F)(F)n3c2ccc3-n2cc(C3CCCC3)nn2)cc1 [MK215-5]
φ (quantum yield) ([1]; MK library, Table 5): 0.53%
λmax Absorp. ([3]; MK library, Table 5): 471 nm
λmax Emission ([3]; MK library, Table 5): 568 nm

SMILES: CC(=O)Nc1ccc(C2=C3C=CC(N(C)Cc4ccccc4)=[N+]3[B-](F)(F)n3c2ccc3-n2cc(C3CC3)nn2)cc1 [MKAC195-4]
φ (%) ([1]; MKAC compound library): 5.45%
λmax Abs. (nm) [3]: 466 nm
λmax Em. (nm) [3]: 582 nm

SMILES: CC(=O)Nc1ccc(C2=C3C=CC(NCc4cc(F)cc(F)c4)=[N+]3[B-](F)(F)n3c2ccc3-n2cc(C3CC3)nn2)cc1 [MKAC412-4]
φ (%) ([1]; MKAC compound library): 26.84%
λmax Abs. (nm) [3]: 466 nm
λmax Em. (nm) [3]: 562 nm

SMILES: CCCCCC(O)c1cn(-c2ccc3n2[B-](F)(F)[N+]2=C(NCc4ccccc4OCC)C=CC2=C3c2ccc(NC(C)=O)cc2)nn1 (stereo not shown) [MKAC103-69]
φ (%) ([1]; MKAC compound library): 20.91%
λmax Abs. (nm) [3]: 465 nm
λmax Em. (nm) [3]: 561 nm

SMILES: CC(=O)Nc1ccc(C2=C3C=CC(N(C)Cc4ccccc4)=[N+]3[B-](F)(F)n3c2ccc3-n2cc(CC3CCCCC3)nn2)cc1 [MKAC195-8]
φ (%) ([1]; MKAC compound library): 3.65%
λmax Abs. (nm) [3]: 466 nm
λmax Em. (nm) [3]: 577 nm

SMILES: CCOc1ccccc1CNC1=[N+]2C(=C(c3ccc(N)cc3)c3ccc(-n4cc(C5CC5)nn4)n3[B-]2(F)F)C=C1 [MK103-4]
φ (quantum yield) ([1]; MK library, Table 5): 1.68%
λmax Absorp. ([3]; MK library, Table 5): 473 nm
λmax Emission ([3]; MK library, Table 5): 563 nm

SMILES: CCCC(C)c1cn(-c2ccc3n2[B-](F)(F)[N+]2=C(NCc4ccccc4OCC)C=CC2=C3c2ccc(NC(=O)CCl)cc2)nn1 (stereo not shown) [MKCA103-3]
φ (%) ([1]; MKCA compound library): 23.61%
λmax Absorp. (nm) [3]: 466 nm
λmax Emission (nm) [3]: 562 nm

SMILES: CCOc1ccccc1CNC1=[N+]2C(=C(c3ccc(NC(=O)CCl)cc3)c3ccc(-n4cc(CN(C)Cc5ccccc5)nn4)n3[B-]2(F)F)C=C1 [MKCA103-18]
φ (%) ([1]; MKCA compound library): 24.66%
λmax Absorp. (nm) [3]: 462 nm
λmax Emission (nm) [3]: 561 nm

SMILES: CC(=O)Nc1ccc(C2=C3C=CC(N4CCc5ccccc5C4)=[N+]3[B-](F)(F)n3c2ccc3-n2cc(CN(C)Cc3ccccc3)nn2)cc1 [MKAC66-18]
φ (%) ([1]; MKAC compound library): 1.56%
λmax Abs. (nm) [3]: 468 nm
λmax Em. (nm) [3]: 585 nm

SMILES: CC(=O)Nc1ccc(C2=C3C=CC(N(C)Cc4ccccc4)=[N+]3[B-](F)(F)n3c2ccc3-n2cc(CCc3ccccc3)nn2)cc1 [MKAC195-19]
φ (%) ([1]; MKAC compound library): 3.78%
λmax Abs. (nm) [3]: 467 nm
λmax Em. (nm) [3]: 577 nm

SMILES: Cc1ccccc1CNC1=[N+]2C(=C(c3ccc(NC(=O)CCl)cc3)c3ccc(-n4cc(CC(C)C)nn4)n3[B-]2(F)F)C=C1 [MKCA101-43]
φ (%) ([1]; MKCA compound library): 29.92%
λmax Absorp. (nm) [3]: 466 nm
λmax Emission (nm) [3]: 562 nm

Source: patent publication US9513294B2, “Megastokes amino-triazolyl-BODIPY compounds and applications to live neuron staining and human serum albumin FA1 drug site probing” (National University of Singapore, priority 2012, dated 2016)
